Reference: patent publication US20110008465A1, “SESQUITERPENE FORMULATIONS, KITS AND METHODS OF USE THEREOF” (priority 2007, published 2011)

Columns and labels:
MCF-7 = experiment: Cytotoxicity of alpha-humulene and isocaryophyllene alone or combined with beta-caryophyllene; format: cell-based, human
Experimental: Combinations of beta-caryophyllene and two other antitumor agents, isocaryophyllene and α-humulene, were also tested as described above with some adaptations. 5×10^3 cells per well were allowed to adhere for 16 hours before treatment. The final concentration of solvent in the culture medium was maintained at 0.5% (volume/volume) to avoid toxicity. These combinations were tested on MCF-7.

A-549 (lung cancer) = experiment: Chou and Talalay combination assay with beta-caryophyllene; format: cell-based, human; conditions: anticancer drug in combination with beta-caryophyllene; Chou and Talalay CI; 48 h
Experimental: (§1) Each solution was prepared fresh and use within 1 hour after preparation.
(§2) Cells were then harvested using trypsine-EDTA. Cells were counted using a hemocytometer and resuspended in DMEM+10% FBS medium.
(§3) Proliferation assay: Increasing concentrations of the anticancer agents and/or beta-caryophyllene were added to 96-well plate (100 μL per well). The final concentration of solvent in the culture medium was maintained below 0.5% (volume/volume) to avoid solvent toxicity.
(§4) The cells were incubated for 48 h at 37° C. and 5% CO2. Cytotoxicity was assessed using the resazurin reduction test (O'Brien et al., 2000). Fluorescence was measured on an automated 96-well Fluoroskan Ascent FI™ plate reader (Labsystems) using excitation and emission wavelengths of 530 nm and 590 nm, respectively. Resazurin was then removed.
(§5) Microplates were frozen at −20° C. overnight. Plates were thawed, a volume of 100 μl of 0.01% SDS in water was added to the wells, the plates were shaken at room temperature for 3 hours and then frozen once more at −20° C. overnight. […] Plates were shaken in the dark (at room temperature) for at least 2 hours, and fluorescence was measured on an automated 96-well Fluoroskan Ascent FI™ plate reader (Labsystems) using excitation and emission wavelengths of 360 nm and 460 nm, respectively.
(§6) Results were analyzed using the Chou and Talalay method (9) and may be interpreted as follow: Cl>1 represents an antagonist effect of beta-caryophyllene with the corresponding anticancer agent; Cl=1 represents an additive effect of beta-caryophyllene with the corresponding anticancer agent; Cl<1 represents a potentiating effect of beta-caryophyllene with the corresponding anticancer agent.

MCF-7 (breast cancer) = experiment: as above; format: cell-based, human; conditions: anticancer drug in combination with beta-caryophyllene; Chou and Talalay CI; 48 h
Experimental: as §1, §2, §3, §4, §5, §6

DLD-1 (colon cancer) = experiment: as above; format: cell-based, human; conditions: anticancer drug in combination with beta-caryophyllene; Chou and Talalay CI; 48 h
Experimental: as §1, §2, §3, §4, §5, §6

PA-1 (ovary cancer) = experiment: as above; format: cell-based, human; conditions: anticancer drug in combination with beta-caryophyllene; Chou and Talalay CI; 48 h
Experimental: as §1, §2, §3, §4, §5, §6

[1] = test system: MDA-MB-231 (breast cancer); experiment: as above; format: cell-based, human; conditions: anticancer drug in combination with beta-caryophyllene; Chou and Talalay CI; 48 h
Experimental: as §1, §2, §3, §4, §5, §6

PC-3 (prostate cancer) = experiment: as above; format: cell-based, human; conditions: anticancer drug in combination with beta-caryophyllene; Chou and Talalay CI; 48 h
Experimental: as §1, §2, §3, §4, §5

[2] = test system: GL-261 (murine glioblastoma); experiment: as above; format: cell-based; conditions: anticancer drug in combination with beta-caryophyllene; Chou and Talalay CI; 48 h
Experimental: as §1, §2, §3, §4, §5, §6

B16 (murine melanoma) = experiment: as above; format: cell-based; conditions: anticancer drug in combination with beta-caryophyllene; Chou and Talalay CI; 48 h
Experimental: as §1, §2, §3, §4, §5, §6

[3] = test system: U-251 (human glioblastoma); experiment: as above; format: cell-based; conditions: anticancer drug in combination with beta-caryophyllene; Chou and Talalay CI; 48 h
Experimental: as §1, §2, §3, §4, §5, §6

MEL-2 (human melanoma) = experiment: as above; format: cell-based; conditions: anticancer drug in combination with beta-caryophyllene; Chou and Talalay CI; 48 h
Experimental: as §1, §2, §3, §4, §5, §6

| Molecule | IC50 (MCF-7; combined with 10 μg/ml of beta-caryophyllene) [µg/mL] | IC50 (MCF-7; used alone) [µg/mL] | Potentiating activity A-549 (A-549 (lung cancer)) | Potentiating activity MCF-7 (MCF-7 (breast cancer)) | Potentiating activity DLD-1 (DLD-1 (colon cancer)) | Potentiating activity PA-1 (PA-1 (ovary cancer)) | Potentiating activity MDA [1] | Potentiating activity PC-3 (PC-3 (prostate cancer)) | Potentiating activity GL-261 [2] | Potentiating activity B16 (B16 (murine melanoma)) | Potentiating activity U-251 [3] | Potentiating activity MEL-2 (MEL-2 (human melanoma)) |
| --- | --- | --- | --- | --- | --- | --- | --- | --- | --- | --- | --- | --- |
| C/C1=C\CC/C(C)=C/CC(C)(C)/C=C/C1 [∝-humulene, α-humulene] | 15 | 25 |  |  |  |  |  |  |  |  |  |  |
| vinblastine sulfate salt |  |  | (1) (Very High: CI equal or below 1 at IC20 and Cl below 0.6 to IC50) | (1) (Very High: CI equal or below 1 at IC20 and Cl below 0.6 to IC50) | (1) (Very High: CI equal or below 1 at IC20 and Cl below 0.6 to IC50) | (1) (Very High: potentiating or additive activity to IC20 and CI < 0.6 to IC50) | (1) (Very High: CI equal or below 1 at IC20 and Cl below 0.6 to IC50) | (3) (Moderate: 0.5 < CI < 0.8 to IC50) | (1) (Very High: potentiating or additive activity to IC20 and CI < 0.6 to IC50) | (1) (Very High: potentiating or additive activity to IC20 and CI < 0.6 to IC50) | (1) (Very High: potentiating or additive activity to IC20 and CI < 0.6 to IC50) | (1) (Very High: potentiating or additive activity to IC20 and CI < 0.6 to IC50) |
| vincristine sulfate salt |  |  | (2) (High: CI below 0.5 at IC50) | (1) (Very High: CI equal or below 1 at IC20 and Cl below 0.6 to IC50) | (1) (Very High: CI equal or below 1 at IC20 and Cl below 0.6 to IC50) | (1) (Very High: potentiating or additive activity to IC20 and CI < 0.6 to IC50) | (3) (Moderate: 0.5 < CI < 0.8 at IC50) | (1) (Very High: potentiating or additive activity to IC20 and CI < 0.6 to IC50) | (1) (Very High: potentiating or additive activity to IC20 and CI < 0.6 to IC50) | (1) (Very High: potentiating or additive activity to IC20 and CI < 0.6 to IC50) | (1) (Very High: potentiating or additive activity to IC20 and CI < 0.6 to IC50) | (1) (Very High: potentiating or additive activity to IC20 and CI < 0.6 to IC50) |
